Source: PMC8123663, “Small-Molecule Inhibitors of the RNA M6A Demethylases FTO Potently Support the Survival of Dopamine Neurons” (International Journal of Molecular Sciences, 2021)
Values joined by “and” are separate entries in the source; they are usually repeats but may differ in a detail not shown here. Identical values can stand only once. “Also recorded” adds a separate entry of the source.

Assays:
[1] = target: T1, FTO protein (Homo sapiens, UniProt Q9C0B1); test: Protein binding by microscale thermophoresis (MST); parameters: purchased ProteoGenics SAS (ProteoGenix), Schiltigheim, France; host or cells: HEK293 (transient transfection); conditions: labelled FTO 20 nM, ligand 0–10 µM, 25 °C, pH 7.4
T1 sequence (Q9C0B1 whole entry): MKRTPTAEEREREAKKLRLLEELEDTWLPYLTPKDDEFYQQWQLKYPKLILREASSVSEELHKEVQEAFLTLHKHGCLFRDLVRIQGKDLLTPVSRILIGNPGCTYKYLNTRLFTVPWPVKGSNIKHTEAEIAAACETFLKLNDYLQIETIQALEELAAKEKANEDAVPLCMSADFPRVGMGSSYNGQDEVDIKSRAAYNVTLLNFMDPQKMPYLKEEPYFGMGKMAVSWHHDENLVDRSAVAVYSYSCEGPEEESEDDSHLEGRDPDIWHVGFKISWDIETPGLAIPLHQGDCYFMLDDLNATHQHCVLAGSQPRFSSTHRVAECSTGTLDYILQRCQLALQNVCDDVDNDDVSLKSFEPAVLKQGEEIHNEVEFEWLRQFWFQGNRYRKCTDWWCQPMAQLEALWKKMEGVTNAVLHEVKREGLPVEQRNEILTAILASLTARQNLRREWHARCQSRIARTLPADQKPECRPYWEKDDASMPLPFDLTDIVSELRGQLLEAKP
Method: The microscale thermophoresis (MST) experiments were performed using Monolith NT.115 instrument (NanoTemper Technologies GmbH, Germany). Recombinant human FTO protein was labeled through His-tag using Monolith His-Tag Labeling Kit RED-tris-NTA (NanoTemper Technologies GmbH; MO-L008). The labelled FTO protein (target) was used at 20 nM in all the experiments and 10 µM starting concentrations of ligands FTO inhibitors 2 or 3 were used in both series of experiments.
The measurements were done in a buffer containing 10 mM Na-phosphate buffer, pH 7.4, 1 mM MgCl2, 3 mM KCl, 150 mM NaCl, 0.05% Tween-20 in premium coated capillaries (NanoTemper Technologies GmbH; MO-K025) using red LED source, power set at 100% and medium MST power at 25 °C. Each data point represents mean fraction bound values from n = 3 independent experiments per binding pair ±S.D, Kd values ± error estimations are indicated. Data analysis was performed using MO.Affinity Analysis v2.3 software.

[2] = tested on: murine endothelial cells bEnd3 co-cultured with murine HIFko astrocytes; test: Artificial in vitro blood-brain barrier model; assay type: in vitro ADME; conditions: 10 µM in insert, 1 h; concentration in well ('brain') / concentration in insert
Source text: The effects of FTO inhibitors were studied in the artificial in vitro BBB model, where murine endothelial cells bEnd3 were co-cultured with murine HIFko astrocytes on hanging cell culture inserts. The BBB penetration % defined as the ratio of the concentration of the compound in the well (‘brain’) side and the concentration in the insert, were 31.7 ± 3.3% for compound 2 and 30.8 ± 1.9% for compound 3.
Artificial in vitro blood–brain barrier (BBB) was established as described by Le Joncour et al. Murine endothelial cells bEnd3 (ATCC CRL-2299) were co-cultured with murine hypoxia-inducible factor knock out (HIFko) astrocytes (passage 12, received from Le Joncour) on hanging cell culture inserts (BD Falcon 353091, Franklin Lakes, NJ, USA) for five days in fetal bovine serum (FBS)-free conditions. 2.5 mL of FTO inhibitors (final concentration of 10 µM) were added into the insert (representing the ‘blood’ side) of the BBB cell. After 1 h incubation, 1 mL of the sample was taken from the insert and from the well (‘brain’ side), and the concentration of the compounds was measured by high-performance liquid chromatography (HPLC). […] The concentration of the studied compounds is each side of the BBB cell were analyzed using LC-MS system consisting of Agilent 1290 UHPLC (Agilent, Inc., Santa Clara, CA, USA) and Agilent 6460 Triple Quadrupole MS (Agilent, Inc., Santa Clara, CA 95051, USA). […]

[3] = tested on: dopamine neurons; test: 6-OHDA induced death of dopamine neurons; assay type: cell-based; conditions: data not shown
[4] = target: T1, FTO protein; test: FTO enzyme inhibition assay (demethylation of m6A RNA probe); assay type: biochemical; parameters: 6His (C); purchased ProteoGenics SAS (ProteoGenix), Schiltigheim, France; host or cells: HEK293 (transient transfection); conditions: for IC50: 10 nM FTO, 200 ng m6A RNA probe, 2 h at RT; for Inhibitory effect on FTO: up to the 100 µM concentration
Method: The enzymatic assay was modified from Huang et al. The experiments were conducted in reaction buffer (50 mM Tris-HCl, pH 7.5, 300 μM 2OG, 280 μM (NH4)2Fe(SO4)2, and 2 mM L-ascorbic acid). The reaction mixture contained 200 ng methylated N^6-adenine RNA probe (SEQ ID NO: 1) (5′-CUUGUCAm6[…]-3′, Dharmacon, Lafayette, CO, USA) and 10 nM FTO protein and different concentrations of ligands (1 nM to 100 µM). Reactions were incubated on 96-well plate for 2 h at RT. After that, the amount of m^6A that was measured using EpiQuik m^6A RNA methylation Quantification Colorimetric Kit (Epigentek, Farmingdale, NY, USA).
The inhibitory effect IE of compounds on RNA probe demethylation by FTO was calculated as the enhancement of the m^6A amount as compared to the negative control (DMSO) relative to the difference between m^6A amounts of the positive control (max inhibition) and the negative control (Equation (2)) (2) IE=Cinh− CDMSO/Cinh(max)− CDMSO where Cinh, Cinh(max), and CDMSO are the amounts of m^6A at a given concentration of the inhibitor, maximum inhibition and in the case of DMSO, respectively.
Enzymatic assay curve-fitting analysis and determination of the IC50 and EC50 values were performed using AAT Bioquest, Inc. Quest Graph™ IC50 Calculator (v.1, Sunnyvale, CA, USA). MST data analysis was performed using MO.Affinity Analysis v2.3 software (NanoTemper Technologies GmbH, Munich, Germany). Statistical significance in cell survival experiments was assessed using one-way ANOVA and unpaired t-test with the GraphPad Prism8 software (GraphPad Software, Inc., 2365 Northside Dr., Suite 560, San Diego, CA, USA). Results were considered statistically significant at p values lower than 0.05.

[5] = tested on: mouse midbrain dopamine neurons; test: Survival of growth factor-deprived primary midbrain dopamine neurons; assay type: cell-based; conditions: for Neuroprotective effect at 10 nM / Neuroprotective effect at 100 nM / Neuroprotective effect at 1000 nM: growth factor deprivation; for Protection of embryonic midbrain dopamine neurons from growth factor deprivation-induced cell death: E13 mouse midbrain cultures, TH-positive cells, 10–1000 nM, five days; for Number of TH-positive neurons: three tested concentrations, growth factor deprivation model
Method: We, therefore, assessed the neuroprotective ability of different concentrations of FTO or ALKBH5 inhibitors in cultured growth factor deprived dopamine neurons. Human recombinant GDNF (100 ng/mL) or a condition without any neurotrophic compound added were used as positive and negative controls, respectively. Growth factor deprivation caused cell death by 50–70%. Representative images of mouse E13 wild-type midbrain cultures treated with vehicle, FTO or ALKBH5 inhibitors, and GDNF (positive control) probed with anti-TH antibody are shown on Figure 7B.
The midbrain floors were dissected from the ventral mesencephalic of 13 days old NMRI strain mouse embryos following the published procedure. The tissues were incubated with 0.5% trypsin (103139, MP Biomedicals, Inc, Thermo Fisher Scientific, Waltham, MA, USA) in HBSS (Ca^2+/Mg^2+-free) (14170112, Invitrogen, Thermo Fisher Scientific, Carlsbad, CA, USA) for 20 min at 37 °C, then mechanically dissociated. Cells were plated onto the 96-well plates coated with poly-L-ornithine (Sigma-Aldrich, Merck KGaA, St. Louis, MO, USA). Equal volumes of cell suspension were plated onto the center of the dish. The dopamine neurons were cultured for five DIV in presence of cell culture media Dulbecco’s MEM/Nut mix F12 (Invitrogen/Gibco; 21331–020), 100 × N2 serum supplement (Invitrogen/ Gibco; 17502–048), 33 mM D-Glucose (Sigma; G-8769), 0.5 mM L-Glutamine (Invitrogen/ Gibco; 25030–032), and 100 μg/mL Primocin (Invivo Gen, San Diego, CA, USA)]. On 6 DIV, to deprive growth factors, the cultures were washed three times with normal medium and the FTO and ALKBH5 inhibitors and glial cell line-derived neurotrophic factor (GDNF) were applied. The cells were grown for five days with different concentrations of FTO and ALKBH5 inhibitors. Human recombinant GDNF (100 ng/mL) (Icosagen AS, Tartu, Estonia) or a condition without any neurotrophic compound added were used as positive and negative controls, respectively.
After growing five days, the neuronal cultures were fixed and stained with anti-Tyrosine Hydroxylase antibody (MAB318, Millipore Bioscience Research Reagents, Temecula, CA, USA). Images were acquired by CellInsight (Thermo Fisher Scientific) high-content imaging equipment. Immunopositive neurons were counted by CellProfiler software and the data was analyzed by CellProfiler analyst software. The results are expressed as % of cell survival compared to GDNF-maintained neurons.

[6] = tested on: ALKBH5; parameters: method as in earlier work; conditions: read-out: IC50 against ALKBH5; cited from earlier work

| Inhibitory effect on FTO [4] | Molecule | Neuroprotective effect at 10 nM [5] | Neuroprotective effect at 100 nM [5] | Neuroprotective effect at 1000 nM [5] | Protection of embryonic midbrain dopamine neurons from growth factor deprivation-induced cell death [5] | further results |
| --- | --- | --- | --- | --- | --- | --- |
| – | Nc1c(C(=O)O)cnc2c(Cl)cccc12 [Compound 2, 4-amino-8-chloroquinoline-3-carboxylic acid] | neuroprotective effect can be seen | statistically significant outcome | statistically significant outcome | dose-dependently protected; also recorded: comparable to that of GDNF | Kd [1]: 185 nM; BBB penetration % [2]: 31.7% and 31.7 ± 3.3%; Rescue of dopamine neurons from 6-OHDA induced neuronal cell death [3]: recued dopamine neurons; IC50 [4]: 1460 nM |
| No significant inhibitory effect | Cc1cccc(C(=O)NNC(=O)/C=C/C(=O)O)c1 [Compound 4, (2E)-4-[(3-methylphenyl)formohydrazido]-4-oxobut-2-enoic acid] | – | – | – | – | – |
| – | Nc1cccc2cc(C(=O)O)cnc12 [Compound 3, 8-aminoquinoline-3-carboxylic acid] | neuroprotective effect can be seen | statistically significant outcome | statistically significant outcome | dose-dependently protected; also recorded: comparable to that of GDNF | Kd [1]: 337 nM; BBB penetration % [2]: 30.8% and 30.8 ± 1.9%; Rescue of dopamine neurons from 6-OHDA induced neuronal cell death [3]: recued dopamine neurons; IC50 [4]: 28900 nM |
| No significant inhibitory effect | Cc1cccc(C(=O)NNC(=O)c2cccc(C)c2)c1 [Compound 6, 3-methyl-N’-(3-methylbenzoyl)benzohydrazide] | – | – | – | – | – |
| – | O=C1CC(NCc2ccco2)C(=O)NN1 (stereo not drawn) [Compound 8, 4-{[(furan-2-yl)methyl]amino}-1,2-diazinane-3,6-dione] | rescued | only a trend | rescued | – | Number of TH-positive neurons [5]: increased |
| – | O=C(O)CSC(O)C(=O)c1ccccc1 (stereo not drawn) [Compound 7, 2-[(1-hydroxy-2-oxo-2-phenylethyl)sulfanyl]acetic acid] | – | – | – | only trend | Number of TH-positive neurons [5]: increased; IC50 [6]: 840 nM |
| No significant inhibitory effect | Nc1c(C(=O)O)cnc2ccccc12 [Compound 1, 4-aminoquinoline-3-carboxylic acid] | – | – | – | – | – |

| Molecule | Inhibitory effect on FTO [4] | Neuroprotective effect at 10 nM [5] | Neuroprotective effect at 100 nM [5] | Neuroprotective effect at 1000 nM [5] | Protection of embryonic midbrain dopamine neurons from growth factor deprivation-induced cell death [5] | further results |
| --- | --- | --- | --- | --- | --- | --- |
| 8-hydroxyquinoline-5-carboxylic acid [Compound 5] | No significant inhibitory effect | – | – | – | – | – |
